PubChem BioAssay (NCI)
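Grown in 96-well plates, cells were treated for 48 hours with each compound at five concentrations. Insufficient inhibition: endpoint recorded as highest concentration tested. At the TGI there is no net growth.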 Where a SMILES comes first, the peptide text is derived from it. [ ]: non-standard residue; d: D form. The star is where a group is joined. Cbz = O=C(OCc1ccccc1)*; Aib = CC(C)(N)C(=O)O

What was measured:
Assay in all cases: growth of human tumour cells (NCI), 48 h
UO-31 renal = test system: UO-31 renal
MDA-MB-435 = test system: MDA-MB-435
OVCAR-5 ovarian = test system: OVCAR-5 ovarian
HCT-15 colon = test system: HCT-15 colon
SN12C renal = test system: SN12C renal
CAKI-1 renal = test system: CAKI-1 renal
HS 578T breast = test system: HS 578T breast
MCF7 breast = test system: MCF7 breast
SNB-75 CNS = test system: SNB-75 CNS
EKVX NSCLC = test system: EKVX NSCLC
OVCAR-4 ovarian = test system: OVCAR-4 ovarian
K-562 leukemia = test system: K-562 leukemia

SMILES	TGI (UO-31 renal) [µM]	TGI (MDA-MB-435) [µM]	TGI (OVCAR-5 ovarian) [µM]	TGI (HCT-15 colon) [µM]	TGI (SN12C renal) [µM]	TGI (CAKI-1 renal) [µM]	TGI (HS 578T breast) [µM]	TGI (MCF7 breast) [µM]	TGI (SNB-75 CNS) [µM]	TGI (EKVX NSCLC) [µM]	TGI (OVCAR-4 ovarian) [µM]	TGI (K-562 leukemia) [µM]
C=C(Cl)CN1c2ccccc2C=Cc2ccccc21	82	44.7	50.8	> 100	57.3	52.9	> 100	50.4	61.9	49.9	97.9	
O=C1c2cc3ncsc3cc2C(=O)c2c(O)ccc(O)c21	> 100	> 100	> 100	> 100	> 100	> 100	> 100	> 100	> 100	> 100	> 100	> 100
Nc1c(C(=O)O)nnc2cc(Cl)ccc12	> 100	> 100	> 100	> 100	> 100	> 100	> 100	> 100	> 100	> 100	> 100	> 100
NC(=S)NS(=O)(=O)c1ccc(Cl)cc1		> 100	> 100	> 100	> 100	> 100	> 100	> 100	> 100	> 100	> 100	> 100
CC1=NN2CCC(=O)N=C2S1		> 100	> 100	> 100	> 100	> 100	> 100	> 100	> 100	> 100	> 100	> 100
Cc1nccn1S(=O)(=O)c1ccc(Cl)cc1	> 100	48.8	> 100	> 100	> 100	> 100	> 100	> 100	> 100	> 100	> 100	> 100
Fc1ccc2c(c1)nc1n2C(c2c(F)cccc2F)SC1 (stereo not given)	> 100	> 100	> 100	> 100	> 100	> 100	> 100	> 100	> 100	> 100	> 100	
COC(=O)/C=C\C(C#N)(C#N)N=Cc1ccc(Br)cc1	15.8	22.4	35.8	11.8	17.8	5.47	49.7	17.1	28.8	29.6	23.7	> 100
CCOC(=O)CCC(NC(=O)c1ccc(Nc2nc3ccccc3nc2C(=O)OCC)s1)C(=O)OCC (stereo not given)	> 100	> 100	> 100	> 100	> 100	> 100	> 100	> 100	> 100	> 100	> 100	> 100
COc1ccc(/C=C(/c2ccc(OC)cc2)c2c(Cl)cc(Cl)c(/C(=C\c3ccc(OC)cc3)c3ccc(OC)cc3)c2N=Nc2ccccc2)cc1	> 100	> 100	> 100	> 100	> 100	> 100	> 100	> 100	> 100	> 100	> 100	> 100
O=C(NNc1nc(-c2ccccc2)cs1)Nc1ccccc1	75.2	65.8	> 100	74.4	97.8	> 100	74.3	62.8	69.3	> 100	88.5	> 100
C=C1CC(O)C2C(=C)C(=O)OC2C2C(C)C(=O)CC12 (stereo not given)	28	33.1	30.1	17.1	29.9	16.6	63.2	26.2	30.3	35.6	37.8	28.7
Cc1ccsc1/C=N/Nc1cc(C)c2ccccc2n1	36.1	30	90.3	28.2	34	41.1	38.6	30.4	31.4	28.8	72.2	78.4
Nc1ccn(CC(O)c2cc3ccccc3[nH]2)c(=O)n1 (stereo not given)	> 100	> 100	> 100	> 100	> 100	> 100	> 100	> 100	> 100	> 100	> 100	> 100
CC(C)=C=CP(=O)(O)c1ccccc1		> 100	> 100	> 100	> 100	> 100	> 100	> 100	> 100	> 100	> 100	> 100
COc1ccc(/C=C2\OC(=O)C(Cl)=C2c2ccc(OC)c(Cl)c2)cc1	48.2	59.9	90.5	> 100		56.8	73.7	46.1	63.4	51.8	51.8	> 100
COc1ccc(/N=N/C(=NNC(=O)c2ccc(C)cc2)c2ccc(N(C)C)cc2)cc1	> 100	62.7	> 100	> 100	> 100	> 100	> 100	56.1	> 100	> 100	> 100	> 100
Nc1ccc(C(=O)O)cc1	> 100	> 100	> 100	52	> 100	> 100	> 100	> 100	> 100	> 100	> 100	> 100
CC1C(c2ccccc2)NC(c2ccccc2)CC1(N)C#N (stereo not given)	> 100	> 100	> 100	> 100	> 100	> 100	> 100	> 100	> 100	> 100	> 100	> 100

SMILES	TGI (UO-31 renal) [µM]	TGI (MDA-MB-435) [µM]	TGI (OVCAR-5 ovarian) [µM]	TGI (HCT-15 colon) [µM]	TGI (SN12C renal) [µM]	TGI (CAKI-1 renal) [µM]	TGI (HS 578T breast) [µM]	TGI (MCF7 breast) [µM]	TGI (SNB-75 CNS) [µM]	TGI (EKVX NSCLC) [µM]	TGI (OVCAR-4 ovarian) [µM]	TGI (K-562 leukemia) [µM]
COc1cc2nc(-c3cccs3)nc(N3C(c4cc(OC)c(OC)c(OC)c4)=NNC(=O)c4ccccc43)c2cc1OC	> 100	32.1	54.5	47.8	51.3	> 100	> 100	> 100	54.2	73.5	42.1	> 100
Cc1oc2nc(N(C)C)n3cnnc3c2c1C	> 100	> 100	> 100	> 100	> 100	> 100	> 100	> 100	> 100	> 100	> 100	> 100
COc1ccc(C2NC(N)=C(C#N)C3=C2C(C)CCC3)cc1OC (stereo not given)	> 100	> 100	> 100	> 100	> 100	> 100	> 100	> 100	16.7	> 100		> 100
NS(=O)(=O)c1ccc(NCc2nc3ccccc3[nH]2)cc1	> 100	> 100	> 100	> 100	> 100	> 100	> 100	> 100	> 100	> 100	> 100	
CC(C)=CCC[C@@H](C)C1=C(O)C(Nc2ccccc2)=C(C)C(=O)C1=O	46.4	> 100	> 100	> 78.7	> 100	56.8	> 100	> 86	> 85.8	> 100	> 100	> 80.9
CNC(=O)C1OC(n2cnc3c(NCc4cccc(I)c4)nc(Cl)nc32)C(O)C1O (stereo not given)	24.6	27	27	20.4	41	40.7	18.7	25.4	16.5	31.5		> 100
CC(C)(NC(=O)C(C)(C)NC(=O)OCc1ccccc1)C(=O)O (Cbz-[Aib]-[Aib]-OH)	> 100	> 100	> 100	> 100	> 100	> 100	> 100	> 100	> 100	> 100	> 100	> 100
CCc1n[nH]c(=O)[nH]1	> 100	> 100	> 100	> 100	> 100	> 100	> 100	> 100	> 100	> 100		> 100
COc1cccc(N(CN2C(=O)CCC2OC)C(C)=O)c1 (stereo not given)	> 100	> 100	> 100	> 100	> 100	> 100	> 100	> 100	> 100		> 100	> 100
O=C1Nc2ccccc2SC1=C(C(=O)c1ccccc1)C(=O)c1ccccc1	> 100	55.6	> 91.1	> 100	> 89.8	> 100	> 100	> 100	> 94.6	> 100	> 100	> 100
CCOC(=O)C1CCCN1C(=O)c1ccccc1Cl (stereo not given)	> 100	> 100	> 100	> 100	> 100	> 100	> 100	> 100	> 100	> 100		> 100
CCCCCCCCCCCCCCCCCCNc1nc(=O)n(C2CC(OP(=O)(O)OCC3OC(n4cc(F)c(=O)[nH]c4=O)CC3O)C(CO)O2)cc1F (stereo not given)	44.2	> 100	> 100	> 100	> 100	> 100	> 100	> 100	> 100	> 100	> 100	> 100
CC(C)(CO)CNc1cc(Cl)nc(N)n1	> 100	> 100	> 100	> 100	> 100	> 100	> 100	> 100	> 100	> 100	> 100	> 100
Cc1cc(S(=O)(=O)Nc2n[nH]c(Nc3ccccc3)n2)c(SSc2cc(Cl)c(C)cc2S(=O)(=O)Nc2n[nH]c(Nc3ccccc3)n2)cc1Cl	> 100	> 100	> 100	> 100	> 100	> 100	> 100	> 10	> 100	> 100	> 100	> 100
O=C(O)C1CSC2(CCCN(Cc3ccccc3)C2)N1 (stereo not given)	> 100	> 100	> 100	> 100	> 100	> 100	> 100	> 100	> 100	> 100	> 100	> 81.1
OCC(S)CS.[Bi] (stereo not given)	34.1	35.6	42.5	50.7	37.9	24.9	53.5	> 100	26.8	45.4	69.2	> 100
CC1CN=C(c2ccc(CN3CCC(CCCC4CCN(Cc5ccc(C6=NCC(C)N6)cc5)CC4)CC3)cc2)N1 (stereo not given)	> 100	36.7	63	> 100	> 100	> 100	> 100	50.3	87.6	92	57.1	> 100
Clc1ncnc2c1nc(C#Cc1ccccc1)n2C1CCCCO1 (stereo not given)	3.38	5.84	4.84			3.91	42.6	3.22	7.78	3.67	3.75	7.46
